Assay results reported in US10287530B2, “Surfactants based on monounsaturated fatty alcohol derivatives” (priority 2013, dated 2019).
Where two headings read alike, the source gives them in different places.

Columns and labels:
[1] = tested on: zein, yellow corn (maize) protein
Protocol: The zein test is based on solubilization by surfactants of a yellow corn (maize) protein that is normally insoluble in water unless it is denatured. The test gravimetrically determines the amount of zein dissolved by a surfactant solution. The solubility of zein in surfactant solutions correlates well with skin irritation or roughness caused by the surfactant. […] A higher zein number corresponds to a greater degree of irritation.
A 1% actives solution of each test surfactant (120 mL) is prepared. The pH of each solution is adjusted to about 7.0 with dilute aq. sulfuric acid or dilute aq. sodium hydroxide. The surfactant solution is warmed to 45° C. Zein powder (1.50 g) is added to each of three jars. Surfactant (25.0 g of 1% actives solution) is added to each jar, and to one empty jar to be used as a blank. The solutions are mixed using magnetic stirring on a temperature-controlled hotplate at 45° C. for 60 min. Each mixture is then centrifuged (2500 rpm, 15 min.), and undissolved zein powder is isolated by vacuum filtration. The residue is washed with deionized water and dried (55° C., 24 h) to constant weight. The amount of undissolved zein protein is found gravimetrically, and the results from three runs are averaged to give the % of solubilized zein and zein number.

[2] = format: physicochemical; conditions: for Rating: overall, versus control
Protocol: Surfactant candidates for water soluble herbicide applications are examined as a replacement for the anionic, nonionic, or anionic/nonionic blend portion and compared to a known industry adjuvant standard for use in paraquat, a water soluble herbicide concentrate formulation. A standard dilution test is conducted whereby the concentrates are diluted in water to determine if solubility is complete.
A known industry paraquat adjuvant (2.8 g) is added and vigorously mixed for 30 s. Deionized water (8.07 g) is added, and mixing resumes for 30 s. […] The cylinder is stoppered and inverted ten times. Solubility is recorded as complete or incomplete. Cylinders are allowed to stand and the amount (in mL) and type of separation are recorded after 30 min., 1 h, 2 h, and 24 h. Results of the solubility testing appear in Table 4 below.
An eight to ten mole alkyl phenol ethoxylate surfactant (0.7 g) is added and vigorously mixed for 30 s. Test sample (0.7 g) is added and mixing resumes for 30 s. Deionized water (4.03 g) is added, and mixing resumes for 30 s.
Test sample (0.7 g) is added and vigorously mixed for 30 s. Sodium linear alkylbenzene sulfonate (“NaLAS,” 0.7 g) is added and mixing resumes for 30 s. Deionized water (4.03 g) is added, and mixing resumes for 30 s.
Test sample (1.4 g) is added and vigorously mixed for 30 s. Deionized water (4.03 g) is added, and mixing resumes for 30 s.

[3] = Surfactant phase behavior study by cross-polarized microscopy; format: physicochemical; conditions: in deionized water, room temperature (20-22° C.); boundaries are estimates (±5%)
Protocol: Phase behavior is observed using an Olympus BH-2 cross-polarized microscope at 100-400× and room temperature (20° C. to 22° C.). The monounsaturated C11 alcohol derivatives (sulfates, ethoxylate sulfates, and alcohol ethoxylates) are compared with their saturated analogs. Samples are prepared by diluting the most concentrated product gradually with deionized water. When the surfactant concentration approaches a phase transition, the concentration is varied at 2-4% intervals to estimate the phase boundary. The actives level reported in Table 6 for each phase boundary is within ±5% of the true boundary. Samples are loaded between a microscope slide and cover glass and are allowed to equilibrate before observation. Microscopic texture is analyzed and used to determine the phase. For some samples, an AR 2000 rheometer (TA Instruments) is used to measure viscosity at 25° C. to further verify phase behavior.

[4] = Interfacial tension (IFT) against light mineral oil, synergy study with cationic surfactant; format: physicochemical; conditions: for IFT at 0.1% actives/mineral oil (blend): 1:1 molar blend of the anionic with Ammonyx Cetac 30, 0.1% actives, light mineral oil; for Calculated IFT (no synergy): expected IFT of the 1:1 molar blend with Ammonyx Cetac 30 by ideal mixing; for Synergy?: measured versus expected IFT of the 1:1 molar blend with Ammonyx Cetac 30; for IFT at 0.1% actives (single component): 0.1 wt. % active against light mineral oil, ambient temperature
Protocol: (§1) The surfactant blends tested are prepared at a 1:1 molar ratio without any pH adjustment. Dilutions are made using deionized water to the desired actives level. Actives amounts are wt. % unless indicated otherwise. Appearances are reported at ambient temperature for samples prepared within the last 24 h.
Interfacial tension (IFT) of all the individual components and their blends is measured at 0.1 wt. % active against light mineral oil at ambient temperature using a Kruss DSA-20 pendent drop tensiometer. The drop is blown out at 600 μL/min., and a video is recorded for 100 s. The video frames taken during the last 15 s are analyzed and used for the IFT calculation.
For blends having an IFT less than 0.5 mN/m, the IFT is determined using a spinning drop tensiometer (University of Texas 500) at 25° C. Oil density=0.877 g/cm^3 and surfactant density=0.997 g/cm^3 are used for the IFT calculation.
The expected IFT for a blend is calculated based on ideal mixing (non-synergistic) using the active component in each blend. The equation used is given as: Expected IFT=X*IFTa+(1−X)*IFTb where X is the actives % of component A, IFTa is the IFT of component A, and IFTb is the IFT of component B. If the measured IFT for a blend is less than the expected IFT, then the blend is synergistic. If the measured IFT for a blend is higher than the expected IFT, the system is antagonistic.

[5] = Appearance and solubility of surfactants and of 1:1 molar blends with cationic surfactant; format: physicochemical; conditions: for Appearance, 0.1%: 1:1 molar blend of the anionic with Ammonyx Cetac 30, 0.1% actives; for Appearance, 0.1% / Appearance, 1.0%: ambient temperature; for Appearance, 1.0%: 1:1 molar blend of the anionic with Ammonyx Cetac 30, 1.0% actives
Protocol: as §1

[6] = corn (maize), 60 min, 1 % actives, pH 7
[7] = Adjuvant (anionic/nonionic) test sample, 342 ppm water
[8] = Anionic test sample, 342 ppm water
[9] = Nonionic test sample, 342 ppm water
[10] = 1% actives solution, pH about 7.0, 45° C., 60 min, average of three runs
[11] = relative to 1% actives Stepanol WA-Extra PCK (SLS) control = 100, higher = more irritating, average of three runs

| Compound | Emulsion stability, mL separation, 1 h [2, 7] [mL] | Emulsion stability, mL separation, 24 h [2, 7] [mL] | Emulsion stability, mL separation, 1 h [2, 8] [mL] | Emulsion stability, mL separation, 24 h [2, 8] [mL] | Emulsion stability, mL separation, 1 h [2, 9] [mL] | Emulsion stability, mL separation, 24 h [2, 9] [mL] | Rating [2] | Estimated Phase Region as a Function of % Actives Level: Hexagonal [3] | Estimated Phase Region as a Function of % Actives Level: Isotropic Clear [3] | Estimated Phase Region as a Function of % Actives Level: Solid/gum/paste [3] | IFT at 0.1% actives/mineral oil (blend) [4] [mN/m] | Calculated IFT (no synergy) [4] [mN/m] | Synergy? [4] | IFT at 0.1% actives (single component) [4] [mN/m] | Appearance, 0.1% [5] | Appearance, 1.0% [5] | Solubility [5] | % solubilized zein [1, 10] [%] | zein number [1, 11] | further results |
| --- | --- | --- | --- | --- | --- | --- | --- | --- | --- | --- | --- | --- | --- | --- | --- | --- | --- | --- | --- | --- |
| CCCCCCCCCCCOS(=O)(=O)[O-].[Na+] [Sat. C11 alcohol Na sulfate, 1-Undecanol Sulfate, Sodium Salt] | 0.2 | 0.4 | 0 | 0 | 0.2 | 0.3 | good | 33-43 % actives | 0-33 % actives | 43-100 % actives | 2.67 | 8.35 | above average | 16.34 | separated | separated | – | – | – | % solubilized zein [1, 6]: 52.9%; zein number [1, 6]: 107; sol (solubility) [2, 7]: I; sol (solubility) ([2]; Anionic test sample: replaces anionic portion, paraquat concentrate in 342 ppm water, 30° C.): S; sol (solubility) ([2]; Nonionic test sample: replaces nonionic portion (with NaLAS), 342 ppm water): I; Solubility ([5]; 1:1 molar blend of the anionic with Ammonyx Cetac 30): poor |
| 1-Undecanol, 3EO Ether Sulfate, Sodium Salt [Sat. C11 alcohol 3EO Na sulfate] | 0 | – | 0 | 0 | 0.1 | 0.5 | good | 33-58 % actives | 0-33 % actives | 82-100 % actives | 0.03 | 4.58 | very high | 8.80 | hazy liquid | separated | fair-poor | – | – | % solubilized zein [1]: 22.3%; zein number [1]: 44.9; Estimated Phase Region as a Function of % Actives Level: Lamellar [3]: 58-82 % actives |
| Undecylenic Alcohol, 3EO Ether Sulfate, Sodium Salt [Unsat. C11 alcohol 3EO Na sulfate] | 0 | – | 0 | 0 | 0.2 | 0.5 | good | – | 0-70 % actives | 80-100 % actives | 0.17 | 2.73 | high | 5.10 | – | hazy liquid | good | 16.5 | 31.6 | Estimated Phase Region as a Function of % Actives Level: Solid/isotropic [3]: 70-80 % actives |
| Undecylenic Alcohol Sulfate, Sodium Salt [Unsat. C11 alcohol Na sulfate] | 0 | 0.25 | 0 | 0 | 0.25 | 0.4 | good | – | 0-68 % actives | 68-100 % actives | 0.17 | 3.16 | – | 5.95 | – | – | good | 9.6 | 19.3 | Synergy? ([4]; listed as Unsat C11 Na sulfate, Sulfate, Sodium Salt): very high; Synergy? ([4]; listed as unsaturated C11 alcohol sulfate, sodium salt, Sulfate, Sodium Salt): very high synergy |
